What all share (assay type): functional
For experiment [1], the species on record is Homo sapiens. Nature of the experiment: Potency relative to fluocinolone 16,17-acetonide(Experimental vasoconstictor activity) in human; 900-1080.
For experiment [2], the species on record is Homo sapiens. Description: Potency relative to fluocinolone 16,17-acetonide(Experimental vasoconstictor activity) in human; 15-45.
Experiment [3] is filed under the species Rattus norvegicus. Description: Anti-inflammatory effect in rat granuloma assay, activity relative to hydrocortisone and hydrocortisone 21-acetate.
For experiment [4], the species on record is Rattus norvegicus. Nature of the experiment: Experimental relative rat granuloma activity (relative to hydrocortisone and hydrocortisone 21-acetate); 200-500.
The species named for experiment [5] is Homo sapiens. Description: Potency relative to fluocinolone 16,17-acetonide in the human vasoconstictor test.
The species named for experiment [6] is Homo sapiens. Description: Potency relative to fluocinolone 16,17-acetonide(Experimental vasoconstictor activity) in human; 100-300.
For experiment [7], the species on record is Homo sapiens. Nature of the experiment: Potency relative to fluocinolone 16,17-acetonide(Experimental vasoconstictor activity) in human; 16-34.

Consider `CCCC(=O)O[C@]1(C(C)=O)CCC2C3C[C@H](F)C4=CC(=O)C=CC4(C)[C@@]3(F)C(O)CC21C` (some centres not stated), for which the Potency in the experiment listed under Homo sapiens [1] is 900.

On to `C[C@]12C=CC(=O)C=C1[C@@H](F)C[C@H]1[C@@H]3C[C@@H](O)[C@](O)(C(=O)CO)[C@@]3(C)C[C@H](O)[C@@]12F` [FLUOCINOLONE], for which the Potency in the experiment filed under Homo sapiens [2] came out at 15; in the experiment filed under Rattus norvegicus [3], 19.7.

Turning to `C[C@@H]1C[C@H]2[C@@H]3C[C@H](F)C4=CC(=O)C=C[C@]4(C)[C@@]3(F)[C@@H](O)C[C@]2(C)[C@@]1(O)C(=O)CO` [FLUMETHASONE], the Potency in the experiment filed under Rattus norvegicus [4] is listed as 200.

As for `CC1(C)O[C@@H]2C[C@H]3[C@@H]4C[C@H](F)C5=CC(=O)CC[C@]5(C)[C@H]4[C@@H](O)C[C@]3(C)[C@]2(C(=O)CO)O1` [FLURANDRENOLIDE], the values for the Potency in the experiment listed under Homo sapiens [5] and in the experiment filed under Homo sapiens [6] were 12 and 100, respectively.

For `CCCCC(=O)O[C@]1(C(=O)CO)CCC2C3CCC4=CC(=O)CCC4(C)C3C(O)CC21C` (some centres not stated), in the experiment filed under Homo sapiens [7], the Potency came to 16.

The record behind these values is ChEMBL document CHEMBL1122453, “Structure-activity relationships in the antiinflammatory steroids: a pattern-recognition approach” (1983).
